Reference: the supplement of paper PMC10307832

Experiments:
Test in all cases: relative viability (nuclei count vs DMSO), 5 days (fraction); higher = more cells survive
CUDC-101 + Foretinib = compound: C#Cc1cccc(Nc2ncnc3cc(OC)c(OCCCCCCC(=O)NO)cc23)c1 [CUDC-101] + COc1cc2c(Oc3ccc(NC(=O)C4(C(=O)Nc5ccc(F)cc5)CC4)cc3F)ccnc2cc1OCCCN1CCOCC1 [Foretinib] (partner 0.25 µM)
Method in brief: (§1)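 Lung cancer cell lines were seeded in 1536-well plates and dosed by pin tool the next day, with either a single drug or a fixed anchor-drug dose combined with five library-drug doses (not always all listed) spaced in √10 steps. Five days later, one step fixed the cells and stained their nuclei (final 0.05% Triton X-100, 1% formaldehyde, 1 ug/ml Hoechst), and nuclei were counted on 4× images. Relative viability is the nuclei count in treated wells divided by the count in vehicle wells, and each value is the median of duplicate plates.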

Vandetanib + Phenformin = compound: COc1cc2/c(=N/c3ccc(Br)cc3F)nc[nH]c2cc1OCC1CCN(C)CC1 [Vandetanib] + N=C(N)NC(=N)NCCc1ccccc1 [Phenformin] (partner 250 µM)
Method in brief: as §1

Vandetanib + Foretinib = compound: COc1cc2/c(=N/c3ccc(Br)cc3F)nc[nH]c2cc1OCC1CCN(C)CC1 [Vandetanib] + COc1cc2c(Oc3ccc(NC(=O)C4(C(=O)Nc5ccc(F)cc5)CC4)cc3F)ccnc2cc1OCCCN1CCOCC1 [Foretinib] (partner 0.25 µM)
Method in brief: as §1

[1] = compound: C1=CC=C2C(=C1)N=C(S2)C(C#N)C3=NC(=NC=C3)NCCC4=CN=CC=C4 + O=C(CCCCCCC(=O)Nc1ccccc1)NO [Vorinostat] (partner 1 µM)
Method in brief: as §1

Cell Line	relative viability (CUDC-101 + Foretinib; first compound 0.01 µM)	relative viability (CUDC-101 + Foretinib; first compound 0.03162 µM)	relative viability (CUDC-101 + Foretinib; first compound 0.1 µM)	relative viability (CUDC-101 + Foretinib; first compound 0.3162 µM)	relative viability (CUDC-101 + Foretinib; first compound 1 µM)	relative viability (Vandetanib + Phenformin; first compound 0.02 µM)	relative viability (Vandetanib + Phenformin; first compound 0.06325 µM)	relative viability (Vandetanib + Phenformin; first compound 0.2 µM)	relative viability (Vandetanib + Phenformin; first compound 0.6325 µM)	relative viability (Vandetanib + Phenformin; first compound 2 µM)	relative viability (Vandetanib + Foretinib; first compound 0.02 µM)	relative viability (Vandetanib + Foretinib; first compound 0.06325 µM)	relative viability (Vandetanib + Foretinib; first compound 0.2 µM)	relative viability (Vandetanib + Foretinib; first compound 0.6325 µM)	relative viability (Vandetanib + Foretinib; first compound 2 µM)	relative viability ([1]; first compound 0.005 µM)	relative viability ([1]; first compound 0.01581 µM)	relative viability ([1]; first compound 0.05 µM)	relative viability ([1]; first compound 0.1581 µM)	relative viability ([1]; first compound 0.5 µM)
201T	1.11	0.835	1.03	1.28	0.936	0.466	0.406	0.427	0.403	0.424	1.08	0.996	1.06	1.15	1	0.819	0.918	0.949	0.997	0.959
A549	0.985	1	0.907	1.02	0.769	0.195	0.133	0.121	0.142	0.0686	1.05	0.961	0.992	0.987	0.854					
A-427	1.01	0.975	1.01	1.06	0.877	0.297	0.303	0.274	0.253	0.22	1.03	1.05	1.1	0.977	1.05	0.9	0.86	0.811	0.902	0.887
ABC-1	1.04	0.797	1.07	0.704	0.519	0.248	0.205	0.256	0.275	0.266	0.971	1.03	0.28	1	0.854	1.13		1.03	1.33	0.985
BEN	0.822	0.547	0.804	0.581	0.648	0.266	0.278	0.279	0.292	0.262	0.601	0.517	0.499	0.61	0.62	0.496	0.58	0.548	0.643	0.577
CAL-12T	1.11	1.06	1.18	1.16	1.16	0.536	0.539	0.446	0.411	0.242	1.13	1.05	0.217	1.31	0.552	0.572	0.873	0.973	0.814	0.725
COR-L23	1.12	0.947	0.924	0.96	0.494	0.485	0.442	0.428	0.452	0.464	0.968	1.01	0.942	0.923	0.995	0.377	0.354	0.464	0.421	0.36
COR-L 105	0.941	0.987	0.951	0.793	0.527	0.535	0.483	0.449	0.292	0.294	0.91	1.11	0.329	0.533	0.358	0.648	0.908	0.884	0.893	0.876
Calu-6	0.932	0.857	0.878	0.823	0.714						0.809	0.86	0.902	0.853	0.856					
ChaGo-K-1	0.916	0.875	0.945	0.894	0.709	0.411	0.463	0.297	0.452	0.466	0.958	0.962	0.939	0.936	0.905	0.584	0.809	0.702	0.863	0.724
EBC-1	0.0994	0.109	0.109	0.0873	0.0665						0.0974	0.0982	0.108	0.0939	0.0987					
EKVX	0.976	0.639	0.681	1.18	0.859	0.245	0.234	0.228	0.227	0.219	0.821	0.695	0.795	0.794	1.17	0.506	0.731	0.677	0.821	0.741
EMC-BAC-2	1.12	0.982	0.954	1.03	0.56	0.51	0.506	0.339	0.485	0.463	0.996	0.934	0.307	0.965	0.958	0.491	0.299	0.48	0.476	0.411
EPLC-272H	0.664	0.723	0.646	0.341	0.585	0.326		0.294	0.273	0.301	0.592		0.708	0.708	0.474		0.519	0.451	0.395	0.178
H3255	0.864	0.917		0.486	0.279	0.427	0.359	0.35	0.303	0.192	0.904	0.824	0.858	0.689	0.345	0.792	0.729	0.745	0.988	0.84
HARA	0.903	0.78	0.853	0.611	0.285	0.471	0.447	0.44	0.381	0.351	0.889	0.753	0.36	0.89	0.735	0.663	0.718	0.559	0.59	0.614
HCC-15	1.09	0.993	0.966	1.09	0.933	0.476	0.429	0.468	0.449	0.447	1.05	0.96	0.577	1.04	0.973	0.959	0.971	0.816	0.851	0.775
HCC-44						0.186	0.223	0.175	0.242	0.121						1.19	1.14	1.09	1.15	1.02
HCC-78	0.549	0.56	0.543	0.494	0.268	0.744	0.638	0.662	0.664	0.627	0.546	0.606	0.524	0.57	0.432	0.485	0.391	0.509	0.524	0.42

Cell Line	relative viability (CUDC-101 + Foretinib; first compound 0.01 µM)	relative viability (CUDC-101 + Foretinib; first compound 0.03162 µM)	relative viability (CUDC-101 + Foretinib; first compound 0.1 µM)	relative viability (CUDC-101 + Foretinib; first compound 0.3162 µM)	relative viability (CUDC-101 + Foretinib; first compound 1 µM)	relative viability (Vandetanib + Phenformin; first compound 0.02 µM)	relative viability (Vandetanib + Phenformin; first compound 0.06325 µM)	relative viability (Vandetanib + Phenformin; first compound 0.2 µM)	relative viability (Vandetanib + Phenformin; first compound 0.6325 µM)	relative viability (Vandetanib + Phenformin; first compound 2 µM)	relative viability (Vandetanib + Foretinib; first compound 0.02 µM)	relative viability (Vandetanib + Foretinib; first compound 0.06325 µM)	relative viability (Vandetanib + Foretinib; first compound 0.2 µM)	relative viability (Vandetanib + Foretinib; first compound 0.6325 µM)	relative viability (Vandetanib + Foretinib; first compound 2 µM)	relative viability ([1]; first compound 0.005 µM)	relative viability ([1]; first compound 0.01581 µM)	relative viability ([1]; first compound 0.05 µM)	relative viability ([1]; first compound 0.1581 µM)	relative viability ([1]; first compound 0.5 µM)
HCC-366	0.939	0.93	0.95	0.847	0.882	0.596	0.603	0.62	0.586	0.505	1.02	0.941	0.501	0.893	0.907	0.336	0.361	0.385	0.519	0.365
HCC-827	1	0.436	0.203	0.153	0.167	0.441	0.367	0.319	0.157	0.165	1.07	1	0.706	0.296	0.169	0.675	0.931	0.838	1.07	0.922
HOP-62	1.08	1.08	1.1	1.14	0.713	0.689	0.664	0.487	0.728	0.703	1.04	1.02	0.562	1.11	1.02	0.49	0.626	0.453	0.685	0.642
IA-LM	1.27	1.1	1.12	1.11	0.657						1.32	0.981	1.11	1.33	1.12	0.742	1.09	1.02	1.11	0.613
LC-2-ad	0.863	0.947	0.904	0.899	0.52	0.615	0.512	0.548	0.475	0.305	1	0.854	0.939	0.801	0.656	0.621	0.704	0.676	0.823	0.612
LCLC-97TM1	0.844	0.824	0.962	0.829	0.666	0.457	0.42	0.441	0.393	0.422	1	0.904	0.997	0.942	0.868	0.608	0.694	0.724	0.725	0.624
LCLC-103H	0.753	0.854	0.808	0.751	0.513	0.316	0.319	0.357	0.344	0.31	0.864	0.786	0.679	0.899	0.714	0.712	0.664	0.718	0.878	0.76
LK-2	1.23	1.19	0.957	0.819	0.554	0.381	0.5	0.419	0.444	0.408	1.19	1.16	0.88	1.22	1.08	0.294	0.278	0.369	0.333	0.355
LOU-NH91	0.862	0.634	0.552	0.589	0.584	0.709	0.619	0.537	0.509	0.51	0.972	0.807	0.787	0.713	0.578	0.907	0.826	0.769	1.03	0.837
LU99A	0.931	0.881	0.684	0.798	0.388	0.876	0.818	0.577	0.766	0.886	0.842	0.757	0.878	0.783	0.823	0.417	0.529		0.622	0.477
LXF-289	0.972	0.932	0.937	0.877	0.497	0.503	0.5	0.499	0.489	0.509	1.01	0.954	0.978	0.968	0.937	0.688	0.862	0.811	1	0.729
NCI-H522						0.691	0.623	0.66	0.585	0.712						0.824	0.774	0.875	0.712	0.864
NCI-H1299	1.08	1.06	1.13	1.12	1.04						1.11	1.03	1.12	1.12	1.1					
NCI-H1563	0.925	0.872	0.851	0.895	0.87	0.679	0.629	0.695	0.616	0.625	0.959	0.96	0.885	0.806	0.866					
NCI-H1623	0.847	0.821	0.711	0.911	0.483	0.574	0.525	0.574	0.526	0.622	0.913	0.829	0.8	0.827	0.764					
NCI-H1648																	0.448		0.622	0.417
NCI-H1703	0.323		0.353	0.402	0.424						0.338	0.346	0.42	0.328	0.339					
NCI-H1792						0.298	0.236	0.184	0.254	0.175										
